Earlier results, collected in US8772507B2, “Imidazole-benzamide anti-cancer agents” (Cytokinetics, Inc., priority 2004, dated 2014).
Like-named read-outs stand apart in the source and are kept apart here.

System: A549 cells

For `O=c1[nH]cc(F)c(=O)[nH]1` [5-fluorouracil], the GI50 is listed as 1 µM and the GI50 (no unit printed at this place) is listed as 1 µM.
For `CC(=O)O[C@H]1C(=O)[C@@]2(C)[C@H]([C@H](OC(=O)c3ccccc3)[C@]3(O)C[C@H](OC(=O)[C@H](O)[C@@H](NC(=O)c4ccccc4)c4ccccc4)C(C)=C1C3(C)C)[C@]1(OC(C)=O)CO[C@@H]1C[C@@H]2O` [paclitaxel], the GI50 is listed as 0.004 µM.
In the case of `COc1cccc2c1C(=O)c1c(O)c3c(c(O)c1C2=O)C[C@@](O)(C(=O)CO)C[C@@H]3O[C@H]1C[C@H](N)[C@H](O)[C@H](C)O1` [doxorubicin], the GI50 is listed as 0.063 µM.
In the case of `NC(=O)NO` [hydroxyurea], the GI50 is given as 500 µM.
